# From US20260272936A1, “TREATMENT OF CANCER WITH A PARG INHIBITOR” (858 Therapeutics, Inc., priority 2023, published 2026)
# Legend:
# [1] = test system: RMUG-S ovarian cancer xenograft; test: RMUG-S ovarian cancer CDX model; type: in vivo, NOD SCID or NOG mice
# Procedure: The CDX model was established by subcutaneous inoculation of 1×10^7 viable RMUG-S cells into the right flank of NOD SCID or NOG mice. […] Compound 1 was administered to mice orally either once daily (QD) or twice daily (BID) for 32-50 days. Compound 1 was administered to mice continuously throughout the treatment period (7/7 days) or intermittently from Monday-Friday (5/7 days), or Monday-Thursday (4/7 days) during the treatment period.
# For all studies, tumor volumes and body weights were measured twice weekly. […] Statistical analysis of end-of-study mean tumor volumes for the T025OV model was performed using an unpaired t-test with Welch's correction.
# [2] = test system: OCM.109 cells; test: 6-day proliferation of patient-derived ovarian cancer model, nuclei count; type: cell-based, human
# Procedure: (§1) Ex vivo ovarian cancer models (OCMs) were established from the ascites of high-grade serous ovarian cancer patients (Coulson-Gilmer, 2021, J Exp Clin Cancer Res) and grown in vitro as 2D cell lines. OCMs were cultured in an incubator at 37° C. in 5% CO2 in OCMI media.
# (§2) Compound 1 IC50 values for inhibition of cell proliferation were determined by imaging and counting the number of nuclei after compound treatment. Cells were harvested with trypsin (Thermo Fisher Scientific, Waltham, MA, USA, Cat #25200-056) and plated in Sarstedt 96-well Cell+ Tissue Culture Plates (Thermo Fisher Scientific, Waltham, MA, USA, Cat #NC9624222) at 5,000 cells/well (OCM.109) or 10,000 cells/well (OCM.246) in 100 μL of OCMI medium and incubated overnight at 37° C., 5% CO2. The following day, 1000× Compound 1 and niraparib concentration curves were prepared by serial dilution in 100% DMSO. The 1000× concentration was diluted 1:200 into growth media to generate a 5× concentration curve in 0.5% DMSO/growth medium before addition of 25 μL of the 5× compound to the wells. Control wells received 25 μL of 0.5% DMSO in media or 10 μM of Compound 1. The plates were mixed and incubated for 6 days at 37° C., 5% CO2 before fixing and staining the cells for nuclei counting as described in Example 3.
# (§3) Four fields in each well were acquired using the DAPI channel at 10× magnification. Using high-content software (Cell Reporter Xpress), the nuclei were detected and counted. The percent proliferation after treatment was determined by normalizing the number of nuclei in the treated wells to the DMSO and 10 μM Compound 1 control wells. Concentration response curves and IC50 values for percent inhibition of proliferation were generated by non-linear regression analysis using a least squares fit of the log (inhibitor) vs. response-Variable slope (four parameters) curve using GraphPad Prism 10 software (GraphPad Software, Boston, MA, USA).
# [3] = test system: OCM.246 cells; test: as above; type: cell-based, human
# Procedure: as §1, §2, §3
# [4] = Homo sapiens, 144 h, read-out: IC50 inhibition of proliferation
compound,measurement,setting,value
"[2H]C([2H])(c1cnn(C)c1)N1C(=O)c2cc(S(=O)(=O)NC3(C)CC3)ccc2N2C1=NC[C@H]2C [Compound 1, (R)-1-methyl-4-((1-methyl-1H-pyrazol-4-yl)methyl-d2)-N-(1-methylcyclopropyl)-5-oxo-1,2,4,5-tetrahydroimidazo[1,2-a]quinazoline-7-sulfonamide]",mean body weight gain over the treatment period,"[1]; first study, highest dose group",5%
same,tolerability (body weight),[1]; second study,generally well tolerated
same,IC50,[2]; [4],51 nM
same,potency better than niraparib,[2]; OCM.109,> 80 fold
same,IC50,[3]; [4],162 nM
same,potency better than niraparib,[3]; OCM.246,> 20 fold
